Data reported in patent US8487115B2, “Hydantoin derivatives of cyano-substituted chrysanthemic acid esters and their use in pest control” (Sumitomo Chemical Company, Limited, priority 2010, dated 2013).

System: German cockroaches
Experiment: Knockdown test on German cockroaches by spraying an oil solution
Type: in vivo, German cockroach (Blattella germanica)
Conditions: 0.00156% (w/v) oil solution, 1.5 ml sprayed from 60 cm height, ten German cockroaches (5 male, 5 female), repeated twice
Experimental: Each of the present invention compounds (1) and (2) (0.00156 parts) produced in the aforementioned Production Examples was dissolved in 10 parts of dichloromethane and the resulting solution was mixed with 89.99844 parts of deodorized kerosine to prepare a 0.00156% (w/v) oil solution.
Ten German cockroaches (5 of each male and female) were released in a test container (measuring 8.75 cm in diameter and 7.5 cm in height, bottom area covered with a 16 mesh wire netting) coated with butter at an inner wall, and the container was disposed on the bottom of a test chamber (bottom surface measuring 46 cm and 46 cm, 70 cm in height).
From 60 cm in height above the container, 1.5 ml of the oil solution of each of the present invention compounds (1) and (2) was sprayed using a spray gun (spray pressure: 0.4 kg/cm^2). Thirty seconds after spraying, the container was removed from the test chamber. After a given time, the number of knockdowned cockroaches was counted and a knockdown rate was determined (repeated twice). The knockdown rate was calculated by the following equation. Knockdown rate (%)=(number of knockdowned cockroaches/number of test cockroaches)×100
For comparison, a test was carried out in the same manner as described above, except that 2,5-dioxo-3-(2-propynyl)imidazolidinylmethyl=(1R)-trans-3-(2-methyl-1-propenyl)-2,2-dimethylcyclopropane carboxylate (compound described in “Pestiside Science”, 1979, 10, p. 291, hereinafter referred to as the comparative compound (1)) represented by the following formula: […]

SMILES	Knockdown rate (%) after 2 minutes [%]
C#CCN1CC(=O)N(COC(=O)[C@@H]2[C@@H](C=C(C)C)C2(C)C)C1=O [Comparative compound (1), 2,5-dioxo-3-(2-propynyl)imidazolidinylmethyl=(1R)-trans-3-(2-methyl-1-propenyl)-2,2-dimethylcyclopropane carboxylate]	45
C#CCN1CC(=O)N(COC(=O)[C@@H]2[C@@H](/C=C(\C#N)C=C)C2(C)C)C1=O [Present invention compound (1), 2,5-dioxo-3-(2-propynyl)imidazolidinylmethyl=(1R)-trans-3-[(1Z)-2-cyano-1,3-butadienyl]-2,2-dimethylcyclopropane carboxylate]	95
C#CCN1CC(=O)N(COC(=O)[C@@H]2[C@@H](/C=C(C#N)/C=C/C)C2(C)C)C1=O [Present invention compound (2), 2,5-dioxo-3-(2-propynyl)imidazolidinylmethyl=(1R)-trans-3-[(1Z,3E)-2-cyano-1,3-pentadienyl]-2,2-dimethylcyclopropane carboxylate]	100
C#CCN1CC(=O)N(COC(=O)[C@@H]2[C@@H](/C=C(\C)C=C)C2(C)C)C1=O [comparative compound (2), 2,5-dioxo-3-(2-propynyl)imidazolidinylmethyl=(1R)-trans-3-[(1E)-2-methyl-1-butadienyl)-2,2-dimethylcyclopropane carboxylate]	10
